Article PMC12668304, “A Triple Threat Against Ovarian Cancer: Os(II)‐Pt(IV)‐Ceritinib Conjugates for Photodynamic Therapy, Chemotherapy, and Immunogenic Cell Death Induction” (Angewandte Chemie (International Ed. in English), 2025)

Tested on: calreticulin (CRT) exposure on MCA205 cells
Experiment: Externalisation of calreticulin (confocal microscopy, anti-CRT antibody)
Assay type: cell-based, mouse
Conditions: positive control, light condition not stated
Method: Surface exposure of CRT was measured via confocal fluorescence microscopy after staining with an anti‐CRT antibody (ab2907). […] The surface exposure in the dark might be due to the oxaliplatin, a bona fide ICD inducer. Specifically, CRT expression increased by 67% upon irradiation and 63% in the dark, compared with non‐treated cells.
Figure 8 Translocation and changes in calreticulin (CRT) exposure on MCA205 cells determined by confocal fluorescence microscopy after 4 h treatment under dark (−L) and light (+L) (740 nm, 1 h) conditions, and an additional 16 h of incubation. DAPI: Nuclear fluorescence dye. Scale bar: 20 µm.
The localisation of the different parts of the studied complexes was determined by measuring the Os and Pt content inside A2780 cells via ICP-MS. […] After this time, the cells were trypsinized and counted. […] In parallel, the content of Os and Pt was determined in a total cell extraction (2·10 6 cells). […] The Os and Pt content was determined using an ICP -MS apparatus and comparing the results with the Os and Pt calibration standards.
A2780 cells were seeded in a 12-well plate to obtain a 90 –100% confluency. […] The cells were monitored by imaging over the following time intervals: 0, 6, 24, 32, and 48 h. […]
Extracellular ATP released from treated MCA205 and A2780 cells was detected by the luminescent ATP assay kit (ab113849). […]

O=C1[O][Pt]2([NH][C@@H]3CCCC[C@H]3[NH]2)[O]C1=O [Oxaliplatin] was tested. Which CRT increase did it give?
The CRT increase was 21%.
